# Source: PubChem BioAssay AID1963972 (Molecular Pharmacology Branch, DTP, NCI, 2024)
# Several values for one entry are separate records, joined by “and”; a condition that tells them apart may be missing. Equal values may be shown once.
# Tested on: 945468-187-T-J2-PDC spheroids viability
# Assay: Anticancer human tumor 945468-187-T-J2-PDC patient-derived rectal carcinoma cell line growth inhibition [PI3K]
# Conditions: spheroids with HUVEC and MSC; for viability, T/C: stronger effect = lower value
# Procedure, shortened: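 Three cell types, namely tumor cells, endothelial cells and mesenchymal stem cells, formed each spheroid. Combinations with four PI3K inhibitors were screened at clinically achievable concentrations decreasing by half-log, and spheroid viability was recorded.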
# [1] = curve of first compound, second compound 0.0316 µM
# [2] = curve of first compound, second compound 0.1 µM
# [3] = curve of first compound, second compound 0.316 µM
# [4] = curve of first compound, second compound 1 µM
# [5] = curve of first compound, second compound 3.16 µM
# [6] = curve of first compound, second compound 10 µM
# [7] = second compound 0.0316 µM, first compound 0.0316 µM
# [8] = second compound 0.0316 µM, first compound 0.1 µM
# [9] = second compound 0.0316 µM, first compound 0.316 µM
# [10] = second compound 0.0316 µM, first compound 1 µM
# [11] = second compound 0.0316 µM, first compound 3.16 µM
# [12] = second compound 0.0316 µM, first compound 10 µM
# [13] = second compound 0.1 µM, first compound 0.0316 µM
# [14] = second compound 0.1 µM, first compound 0.1 µM
# [15] = second compound 0.1 µM, first compound 0.316 µM
# [16] = second compound 0.1 µM, first compound 1 µM
# [17] = second compound 0.1 µM, first compound 3.16 µM
# [18] = second compound 0.1 µM, first compound 10 µM
# [19] = second compound 0.316 µM, first compound 0.0316 µM
# [20] = second compound 0.316 µM, first compound 0.1 µM
# [21] = second compound 0.316 µM, first compound 0.316 µM
# [22] = second compound 0.316 µM, first compound 1 µM
# [23] = second compound 0.316 µM, first compound 3.16 µM
# [24] = second compound 0.316 µM, first compound 10 µM
# [25] = second compound 1 µM, first compound 0.0316 µM
# [26] = second compound 1 µM, first compound 0.1 µM
# [27] = second compound 1 µM, first compound 0.316 µM
# [28] = second compound 1 µM, first compound 1 µM
# [29] = second compound 1 µM, first compound 3.16 µM
# [30] = second compound 1 µM, first compound 10 µM
# [31] = second compound 3.16 µM, first compound 0.0316 µM
# [32] = second compound 3.16 µM, first compound 0.1 µM
# [33] = second compound 3.16 µM, first compound 0.316 µM
# [34] = second compound 3.16 µM, first compound 1 µM
# [35] = second compound 3.16 µM, first compound 3.16 µM
# [36] = second compound 3.16 µM, first compound 10 µM
# [37] = second compound 10 µM, first compound 0.0316 µM
# [38] = second compound 10 µM, first compound 0.1 µM
# [39] = second compound 10 µM, first compound 0.316 µM
# [40] = second compound 10 µM, first compound 1 µM
# [41] = second compound 10 µM, first compound 3.16 µM
# [42] = second compound 10 µM, first compound 10 µM
# 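Further: spheroids exposed to compounds for seven days before reading.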
smiles,measurement,setting,value
Cn1ncc(Cl)c1-c1cc(C(=O)NC(CN)Cc2cccc(F)c2)sc1Cl (configuration not stated) + Cc1nc(NC(=O)N2CCCC2C(N)=O)sc1-c1ccnc(C(C)(C)C(F)(F)F)c1,IC50,[1],> 10 µM
same,IC50,[2],> 10 µM
same,IC50,[3],> 10 µM
same,IC50,[4],> 10 µM
same,IC50,[5],> 10 µM
same,IC50,[6],> 10 µM
same,"viability, T/C",[7],94%
same,"viability, T/C",[8],123%
same,"viability, T/C",[9],104%
same,"viability, T/C",[10],77.9%
same,"viability, T/C",[11],89.8%
same,"viability, T/C",[12],71.6%
same,"viability, T/C",[13],116%
same,"viability, T/C",[14],134%
same,"viability, T/C",[15],104%
same,"viability, T/C",[16],101%
same,"viability, T/C",[17],72.3%
same,"viability, T/C",[18],65.9%
same,"viability, T/C",[19],102%
same,"viability, T/C",[20],104%
same,"viability, T/C",[21],124%
same,"viability, T/C",[22],92.1%
same,"viability, T/C",[23],72.3%
same,"viability, T/C",[24],70.9%
same,"viability, T/C",[25],97.4%
same,"viability, T/C",[26],92.7%
same,"viability, T/C",[27],97.4%
same,"viability, T/C",[28],88.4%
same,"viability, T/C",[29],77.9%
same,"viability, T/C",[30],54.9%
same,"viability, T/C",[31],86.7%
same,"viability, T/C",[32],87.7%
same,"viability, T/C",[33],88%
same,"viability, T/C",[34],75.1%
same,"viability, T/C",[35],72.5%
same,"viability, T/C",[36],60%
same,"viability, T/C",[37],85.9%
same,"viability, T/C",[38],79.8%
same,"viability, T/C",[39],92.5%
same,"viability, T/C",[40],89%
same,"viability, T/C",[41],59.5%
same,"viability, T/C",[42],56.6%
CNC(=O)c1ccc(N2C(=S)N(c3ccc(C#N)c(C(F)(F)F)c3)C(=O)C2(C)C)cc1F,"viability, T/C",compound 0.0316 µM,92.1% [middle of 4 runs]
same,"viability, T/C",compound 0.1 µM,106% (2×) and 93.2% and 121%
same,"viability, T/C",compound 0.316 µM,89% [middle of 4 runs]
same,"viability, T/C",compound 1 µM,85.3% [middle of 4 runs]
same,"viability, T/C",compound 3.16 µM,91.6% [middle of 4 runs]
same,IC50,curve of compound,> 10 µM
CC(=O)c1c(C)c2cnc(Nc3ccc(N4CCNCC4)cn3)nc2n(C2CCCC2)c1=O + CC(Nc1ncnc2nc[nH]c12)c1cc2cccc(Cl)c2c(=O)n1-c1ccccc1,IC50,[1],> 0.1 µM
same,IC50,[2],> 0.1 µM
same,IC50,[3],> 0.1 µM
same,IC50,[4],> 0.1 µM
same,IC50,[5],> 0.1 µM
same,IC50,[6],> 0.1 µM
same,"viability, T/C","second compound 0.0316 µM, first compound 0.000316 µM",104%
same,"viability, T/C","second compound 0.0316 µM, first compound 0.001 µM",80%
same,"viability, T/C","second compound 0.0316 µM, first compound 0.00316 µM",101%
same,"viability, T/C","second compound 0.0316 µM, first compound 0.01 µM",100%
same,"viability, T/C",[7],90%
same,"viability, T/C",[8],122%
same,"viability, T/C","second compound 0.1 µM, first compound 0.000316 µM",98.9%
same,"viability, T/C","second compound 0.1 µM, first compound 0.001 µM",101%
same,"viability, T/C","second compound 0.1 µM, first compound 0.00316 µM",89.4%
same,"viability, T/C","second compound 0.1 µM, first compound 0.01 µM",80.3%
same,"viability, T/C",[13],104%
same,"viability, T/C",[14],101%
same,"viability, T/C","second compound 0.316 µM, first compound 0.000316 µM",82.3%
same,"viability, T/C","second compound 0.316 µM, first compound 0.001 µM",108%
same,"viability, T/C","second compound 0.316 µM, first compound 0.00316 µM",103%
same,"viability, T/C","second compound 0.316 µM, first compound 0.01 µM",98.4%
same,"viability, T/C",[19],113%
same,"viability, T/C",[20],88.7%
same,"viability, T/C","second compound 1 µM, first compound 0.000316 µM",91.2%
same,"viability, T/C","second compound 1 µM, first compound 0.001 µM",103%
same,"viability, T/C","second compound 1 µM, first compound 0.00316 µM",85.4%
same,"viability, T/C","second compound 1 µM, first compound 0.01 µM",89.8%
same,"viability, T/C",[25],90.7%
same,"viability, T/C",[26],109%
same,"viability, T/C","second compound 3.16 µM, first compound 0.000316 µM",87.8%
same,"viability, T/C","second compound 3.16 µM, first compound 0.001 µM",87%
same,"viability, T/C","second compound 3.16 µM, first compound 0.00316 µM",102%
same,"viability, T/C","second compound 3.16 µM, first compound 0.01 µM",99.5%
same,"viability, T/C",[31],111%
same,"viability, T/C",[32],118%
same,"viability, T/C","second compound 10 µM, first compound 0.000316 µM",101%
same,"viability, T/C","second compound 10 µM, first compound 0.001 µM",100%
same,"viability, T/C","second compound 10 µM, first compound 0.00316 µM",101%
same,"viability, T/C","second compound 10 µM, first compound 0.01 µM",87.9%
same,"viability, T/C",[37],99.5%
same,"viability, T/C",[38],121%
C=CC(=O)N1CCN(c2nc(=O)n(-c3c(C)ccnc3C(C)C)c3nc(-c4c(O)cccc4F)c(F)cc23)C(C)C1 (configuration not stated) + CC(Nc1ncnc2nc[nH]c12)c1cc2cccc(Cl)c2c(=O)n1-c1ccccc1,IC50,[1],> 10 µM
same,IC50,[2],> 10 µM
same,IC50,[3],> 10 µM
same,IC50,[4],> 10 µM
same,IC50,[5],> 10 µM
same,IC50,[6],> 10 µM
same,"viability, T/C",[7],103%
same,"viability, T/C",[8],124%
same,"viability, T/C",[9],100%
same,"viability, T/C",[10],114%
same,"viability, T/C",[11],111%
same,"viability, T/C",[12],95.8%
same,"viability, T/C",[13],97.5%
same,"viability, T/C",[14],82.7%
same,"viability, T/C",[15],91.5%
same,"viability, T/C",[16],85.2%
same,"viability, T/C",[17],93%
same,"viability, T/C",[18],136%
same,"viability, T/C",[19],109%
same,"viability, T/C",[20],114%
same,"viability, T/C",[21],96.3%
same,"viability, T/C",[22],105%
same,"viability, T/C",[23],106%
same,"viability, T/C",[24],84.7%
same,"viability, T/C",[25],87.6%
same,"viability, T/C",[26],98.8%
same,"viability, T/C",[27],113%
same,"viability, T/C",[28],104%
same,"viability, T/C",[29],107%
same,"viability, T/C",[30],89.3%
same,"viability, T/C",[31],94.6%
same,"viability, T/C",[32],106%
same,"viability, T/C",[33],104%
same,"viability, T/C",[34],97.8%
same,"viability, T/C",[35],99.6%
same,"viability, T/C",[36],104%
same,"viability, T/C",[37],124%
same,"viability, T/C",[38],122%
same,"viability, T/C",[39],116%
same,"viability, T/C",[40],123%
same,"viability, T/C",[41],92.4%
same,"viability, T/C",[42],90.4%
